“Also recorded” adds a separate entry of the source.
Test system: microorganisms
Assay: Targeting peptide binding to target microorganisms (Tables 3, 10, 12)
Conditions: microorganism(s) the targeting peptide binds; binding in aqueous buffers varied with peptide solubility, preferably 1x PBS

Question: For “PF-300 (VKDVLLELFNKIIGA; Peptide with targeting and/or antimicrobial activity)”, which “Target(s)” value is on record?
Answer: B. subtilis; also recorded: C. difficile

Question: For “PF-304 (LVKDTSDIKNDLNNIEIVTSKNSNDIAKLKSVK; Peptide with targeting and/or antimicrobial activity)”, which “Target(s)” value is on record?
Answer: S. mutans

Question: How did the “Target(s)” value turn out when “PF-308 (QQYLILDRM; Peptide with targeting and/or antimicrobial activity)” was run?
Answer: C. difficile

Question: How did the “Target(s)” value turn out when “PF-309 (GIPGMTAAPAEENEQEENADEE; Peptide with targeting and/or antimicrobial activity)” was run?
Answer: S. mutans; also recorded: E. coli

Question: Which “Target(s)” value does the source give for “PF-311 (IDAVTKKKTTCMIRAPTKIPIAHTDN; Peptide with targeting and/or antimicrobial activity)” here?
Answer: C. difficile

Question: Which “Target(s)” value does the source give for “PF-314 (ECLKKAIKSKALNKAFKIDVPDEVYDNLLMELEEYEK; Peptide with targeting and/or antimicrobial activity)” here?
Answer: S. mutans

Question: Which “Target(s)” value does the source give for “PF-317 (LILVSDI; Peptide with targeting and/or antimicrobial activity)” here?
Answer: S. mutans

Question: For “PF-320 (DSGYYALLENKEERVVWDGEVVANNIFNNLWIVVNKVKTG; Peptide with targeting and/or antimicrobial activity)”, which “Target(s)” value is on record?
Answer: S. mutans; also recorded: E. coli

Question: For “PF-323 (ARESIEKSHVPVDATIVGVVDSFEVFDE; Peptide with targeting and/or antimicrobial activity)”, which “Target(s)” value is on record?
Answer: S. mutans

Question: Which “Target(s)” value does the source give for “PF-324 (HFSLL; Peptide with targeting and/or antimicrobial activity)” here?
Answer: C. difficile

Question: For “PF-325 (LTIDEKLRNHR; Peptide with targeting and/or antimicrobial activity)”, which “Target(s)” value is on record?
Answer: S. mutans; also recorded: E. coli

Question: “PF-326 (VIVGNLGAQKEKRNDTPISAKKDIMGDKTVRVRADLHH; Peptide with targeting and/or antimicrobial activity)” was tested. Which “Target(s)” value did it give?
Answer: S. mutans; also recorded: E. coli

Question: “PF-328 (NGNEKAFSEVENLVK; Peptide with targeting and/or antimicrobial activity)” was tested. Which “Target(s)” value did it give?
Answer: S. mutans

Question: How did the “Target(s)” value turn out when “PF-329 (IGILFDKSVRKY; Peptide with targeting and/or antimicrobial activity)” was run?
Answer: S. epidermidis

Question: “PF-333 (YMTKKLVEMAEQQMAGKSNR; Peptide with targeting and/or antimicrobial activity)” was tested. Which “Target(s)” value did it give?
Answer: S. mutans

Question: For “PF-334 (QQYLILDRM; Peptide with targeting and/or antimicrobial activity)”, which “Target(s)” value is on record?
Answer: S. epidermidis; also recorded: C. difficile

Question: With “PF-337 (YMTKKLVEMAERQMAGK; Peptide with targeting and/or antimicrobial activity)” as the substance, how does the “Target(s)” value read?
Answer: S. epidermidis

Question: With “PF-338 (KGTSCPDQLSKAIRQSI; Peptide with targeting and/or antimicrobial activity)” as the substance, how does the “Target(s)” value read?
Answer: S. mutans

Question: Which “Target(s)” value does the source give for “PF-340 (VKDVLLELFNKIIGA; Peptide with targeting and/or antimicrobial activity)” here?
Answer: S. mutans; also recorded: E. coli

Question: For “PF-348 (ESASAAEWYNPNMNVKKAICMG; Peptide with targeting and/or antimicrobial activity)”, which “Target(s)” value is on record?
Answer: B. subtilis; also recorded: E. coli; also recorded: P. aeruginosa; also recorded: C. albicans; also recorded: E. faecalis; also recorded: C. jejuni

Question: With “PF-351 (YLFFKGKKVAEEEATKDEVKR; Peptide with targeting and/or antimicrobial activity)” as the substance, how does the “Target(s)” value read?
Answer: S. mutans

Question: How did the “Target(s)” value turn out when “PF-352 (RVKKIG; Peptide with targeting and/or antimicrobial activity)” was run?
Answer: C. jeikeium

Question: How did the “Target(s)” value turn out when “PF-359 (MTVMEDPGSEQRNKIQSPMKGEDFSALFGR; Peptide with targeting and/or antimicrobial activity)” was run?
Answer: S. epidermidis and B. fragilis and P. aeruginosa and C. albicans and MRSA and E. faecalis and C. jeikeium

Question: “PF-361 (NQVTEGIRLLVE; Peptide with targeting and/or antimicrobial activity)” was tested. Which “Target(s)” value did it give?
Answer: S. epidermidis; also recorded: E. coli; also recorded: E. faecalis; also recorded: C. jejuni

Question: With “PF-364 (LVNGIKI; Peptide with targeting and/or antimicrobial activity)” as the substance, how does the “Target(s)” value read?
Answer: S. epidermidis; also recorded: B. fragilis; also recorded: P. aeruginosa; also recorded: C. jeikeium; also recorded: C. jejuni

Question: With “PF-365 (LYKQKIQLEEELEKLKDDRQ; Peptide with targeting and/or antimicrobial activity)” as the substance, how does the “Target(s)” value read?
Answer: S. epidermidis; also recorded: B. subtilis; also recorded: B. fragilis; also recorded: P. aeruginosa; also recorded: C. albicans

Question: How did the “Target(s)” value turn out when “PF-367 (TKTPGTFTPGTGIQKTAVPL; Peptide with targeting and/or antimicrobial activity)” was run?
Answer: B. subtilis

Question: For “PF-368 (MLKQTA; Peptide with targeting and/or antimicrobial activity)”, which “Target(s)” value is on record?
Answer: C. jeikeium; also recorded: C. jejuni

Question: For “PF-371 (TFIYNEF; Peptide with targeting and/or antimicrobial activity)”, which “Target(s)” value is on record?
Answer: S. epidermidis; also recorded: B. fragilis; also recorded: C. jejuni

Question: “PF-372 (KKQDKRIEDKYKRMKKGD; Peptide with targeting and/or antimicrobial activity)” was tested. Which “Target(s)” value did it give?
Answer: C. jeikeium; also recorded: C. jejuni

Question: For “PF-384 (HISKERFEAY; Peptide with targeting and/or antimicrobial activity)”, which “Target(s)” value is on record?
Answer: E. faecalis; also recorded: C. jeikeium; also recorded: C. jejuni

Question: Which “Target(s)” value does the source give for “PF-388 (ITPLLDEIGKVCIDKISK; Peptide with targeting and/or antimicrobial activity)” here?
Answer: E. faecalis; also recorded: C. jeikeium; also recorded: C. jejuni

Question: How did the “Target(s)” value turn out when “PF-400 (VIAWKFRNKFENSGV; Peptide with targeting and/or antimicrobial activity)” was run?
Answer: S. epidermidis; also recorded: E. coli; also recorded: S. pneumoniae; also recorded: E. faecalis; also recorded: C. jeikeium

Question: Which “Target(s)” value does the source give for “PF-402 (FIDVLKSKINEFLN; Peptide with targeting and/or antimicrobial activity)” here?
Answer: S. epidermidis; also recorded: P. aeruginosa; also recorded: E. faecalis; also recorded: C. jejuni

Question: With “PF-409 (DLVQSILSEFKKSG; Peptide with targeting and/or antimicrobial activity)” as the substance, how does the “Target(s)” value read?
Answer: S. epidermidis and MRSA and C. jeikeium and C. jejuni

Question: For “PF-412 (TSGWLGQLEQ; Peptide with targeting and/or antimicrobial activity)”, which “Target(s)” value is on record?
Answer: M. luteus; also recorded: E. coli; also recorded: C. albicans; also recorded: C. jeikeium; also recorded: C. jejuni

Question: With “PF-435 (MSRWDGHSDKGEAPAGKPPMHGFGLNGENK; Peptide with targeting and/or antimicrobial activity)” as the substance, how does the “Target(s)” value read?
Answer: C. jeikeium

Question: With “PF-436 (KKHVLVGKQEKNG; Peptide with targeting and/or antimicrobial activity)” as the substance, how does the “Target(s)” value read?
Answer: C. jeikeium

Question: Which “Target(s)” value does the source give for “PF-438 (QPYFQNQFKKITGYTPLQYRKEKR; Peptide with targeting and/or antimicrobial activity)” here?
Answer: S. epidermidis; also recorded: E. coli; also recorded: S. pneumoniae; also recorded: C. jeikeium; also recorded: C. jejuni

Question: How did the “Target(s)” value turn out when “PF-441 (TQVHKMARGIDPGPANGIYR; Peptide with targeting and/or antimicrobial activity)” was run?
Answer: C. jeikeium

Question: Which “Target(s)” value does the source give for “PF-463 (MVILVFSLIFIFTDNYLVYQSKSIKEDVMI; Peptide with targeting and/or antimicrobial activity)” here?
Answer: S. epidermidis; also recorded: E. coli; also recorded: P. aeruginosa; also recorded: C. albicans; also recorded: S. pneumoniae; also recorded: E. faecalis; also recorded: M. smegmatis

Question: “PF-481 (DELYEIMDKVIEEFNKDIEQNNNNGNNEDLTENKIN; Peptide with targeting and/or antimicrobial activity)” was tested. Which “Target(s)” value did it give?
Answer: C. jeikeium

Question: Which “Target(s)” value does the source give for “PF-483 (EDNKDKKDKKDK; Peptide with targeting and/or antimicrobial activity)” here?
Answer: P. mirabilis; also recorded: C. jeikeium; also recorded: C. jejuni

Question: How did the “Target(s)” value turn out when “PF-486 (MQKEGEEDY; Peptide with targeting and/or antimicrobial activity)” was run?
Answer: S. mutans

Question: How did the “Target(s)” value turn out when “PF-487 (MYKAIAVLAMTIMAFFIFVYPFFIVGLILG; Peptide with targeting and/or antimicrobial activity)” was run?
Answer: S. mutans; also recorded: E. coli

Question: “PF-488 (YPNEQGHHKNNLKNIIIE; Peptide with targeting and/or antimicrobial activity)” was tested. Which “Target(s)” value did it give?
Answer: S. mutans; also recorded: E. coli

Question: Which “Target(s)” value does the source give for “PF-489 (KVDRVSTTITEKIK; Peptide with targeting and/or antimicrobial activity)” here?
Answer: S. mutans

Question: “PF-490 (RLILVSGNATVQK; Peptide with targeting and/or antimicrobial activity)” was tested. Which “Target(s)” value did it give?
Answer: S. mutans; also recorded: E. coli

Question: How did the “Target(s)” value turn out when “PF-491 (IHQYSSKPDIVGQEAKTVQQINS; Peptide with targeting and/or antimicrobial activity)” was run?
Answer: S. mutans; also recorded: E. coli

Question: “PF-492 (IQIDAASFYSISKSTIK; Peptide with targeting and/or antimicrobial activity)” was tested. Which “Target(s)” value did it give?
Answer: S. mutans; also recorded: B. subtilis; also recorded: E. coli

Question: How did the “Target(s)” value turn out when “PF-493 (PGAFFFCRGRGCWCGIGW; Peptide with targeting and/or antimicrobial activity)” was run?
Answer: S. mutans; also recorded: B. subtilis; also recorded: E. coli

Question: “PF-494 (FTEPLRPLQAKGQIISIKPSTSSS; Peptide with targeting and/or antimicrobial activity)” was tested. Which “Target(s)” value did it give?
Answer: S. mutans

Question: Which “Target(s)” value does the source give for “PF-495 (KGIYKKRTY; Peptide with targeting and/or antimicrobial activity)” here?
Answer: S. mutans; also recorded: E. coli

Question: For “PF-496 (EVTKRLVALAQQQLRG; Peptide with targeting and/or antimicrobial activity)”, which “Target(s)” value is on record?
Answer: S. mutans; also recorded: E. coli

Question: With “PF-498 (MSEEEEVSEKVYNYLRRNEFFEVRKEEFSA; Peptide with targeting and/or antimicrobial activity)” as the substance, how does the “Target(s)” value read?
Answer: S. mutans; also recorded: E. coli

From patent US20110039763A1, “TARGETED ANTIMICROBIAL MOIETIES” (C3 JIAN, INC., priority 2009, published 2011)
